Experimental data: patent US9234046B2, “Treatment of renal disease” (OPSONA Therapeutics Ltd, priority 2007, dated 2016)
Where “and” joins values, the source holds several entries; their conditions need not be identical. Identical values can stand only once.

Test system: mice
Assay: Warm renal ischemia/reperfusion repeat study Step 2, 25 minutes ischemia (Example 3)
Type: in vivo
Settings: for MDA level as an index of lipid peroxidation / uremia (urea) / MPO activity as an index of neutrophil accumulation / creatininemia (creatinine): individual data and Mean ± SEM, n=6
Procedure: Nine Experimental groups were used in Step 2: • 1) Sham-operated mice sacrificed 1 day after surgery, n=6, • 2) PBS-vehicle-treated mice 15 minutes before ischemia/1 day reperfusion, n=6, • 3) Isotype control antibody 10 mg/kg-treated mice 15 minutes before 25 minutes ischemia/1 day reperfusion, n=6 (The isotype control antibody is mouse IgG1 isotype control purchased from RnD systems (catalogue number MAB002), this isotype control antibody having binding specificity for Keyhole Limpet Hemocyanin (KLH) antigen), • 4) OPN301 anti-TLR2 monoclonal antibody 10 mg/kg-treated mice 15 minutes before 25 minutes ischemia/1 day reperfusion, n=6, • 5) Pargyline 6 mg/kg-treated mice 15 minutes before 25 minutes ischemia/1 day reperfusion, n=6, • 6) PBS-vehicle-treated mice 15 minutes before 25 min ischemia/5 day reperfusion, n=6, • 7) Isotype control antibody (RnD Systems catalogue Number MAB002) 10 mg/kg-treated mice 15 minutes before 25 minutes ischemia/5 day reperfusion, n=6, • 8) OPN301 anti-TLR2 monoclonal antibody 10 mg/kg-treated mice 15 minutes before 25 minutes ischemia/5 day reperfusion, n=6, • 9) Pargyline 6 mg/kg-treated mice 15 minutes before 25 minutes ischemia/5 day reperfusion, n=6, Experimental Warm Renal Ischemia/Reperfusion (Step 1 and 2)
Briefly, mice were anesthetized with 10 μl/g of a mix of 2.5 ml ketamine (Ketalar 50 mg/mL, Centravet; Lapalisse, France), 0.5 ml xylazine (Rompun 2.5%, Centravet; Lapalisse, France), and 7 mL NaCl 0.9% (Centravet; Lapalisse, France). During surgery, animals were set on a 35° C. hotplate.
After a 2 millimetre incision was made at the right jugular level, jugular vein was exposed for a 1 minute-intravenous injection (insulin syringe; VWR, Fontenay-sous-Bois, France) of 70 μl of the considered treatment then closed after haemostasis (5/0 Ethicrin thread, Ethicon; Auneau, France). In Step 1, no jugular injection was performed.
Three centimetre midline incisions were made to abdominal cutaneous followed by muscular incisions were performed; renal pedicles were exposed and clamped for 25 minutes using microaneurysm clamps (AREX; Palaiseau, France). At the time of clamp installation and removal, kidneys were inspected for blood flow arrest and restoration, respectively. During renal ischemia duration, the abdomen was wrapped up to avoid loss of heat and be kept in relative intra-abdominal pressure. At the time of abdomen closing in 2 layers (5/0 Ethicrin thread, Ethicon; Auneau, France), mice were supplemented with 1 mL sterile NaCl (sodium chloride) 0.9% to maintain fluid balance and volume status. Finally, all mice received an intramuscular injection of 10 mg/kg profenid 50 mg/mL (Centravet; Lapalisse, France) for analgesic purpose then allowed to recover from surgery for 12 hours at 32° C. in a ventilated stove. Food and water were given ad libitum. Sham-operated mice underwent the same procedure without clamping.
At the end of the protocol, mice were sacrificed by lethal injection of pentobarbital (100 μL/10 g, Ceva Sante Animale; Libourne, France) 1 and 5 days after surgery.
Experimental methodology such as urea, creatinine, MPO and MDA as described in Example 2.
The results were given as mean values±standard error of the mean (SEM). A one-way ANOVA was used for comparison of within-group difference followed by a Newman-Keuls test for comparison of all pairs of columns (GraphPad Prism, San Diego, USA). A p<0.05 was accepted for statistical significance.

In the case of `C#CCN(C)Cc1ccccc1` [Pargyline], the “effect on renal function impairment induced by ischemic injury, in words” value (1 day after 25 minute ischemia) is reported as “without effects”, the “MDA level as an index of lipid peroxidation” value (“MDA level as an index” below) (Day 1 after 25 minute ischemia, PBS-vehicle 0.153 ± 0.014) is reported as 0.285 nmol/mg proteins and 0.163 nmol/mg proteins and 0.212 nmol/mg proteins and 0.242 nmol/mg proteins and 0.249 nmol/mg proteins and 0.202 nmol/mg proteins and the “MDA level as an index” value (Day 1 after 25 minute ischemia, PBS-vehicle 0.153 ± 0.014, mean) is reported as 0.225 ± 0.017 nmol/mg proteins. The “uremia (urea)” value (Day 1 after 25 minute ischemia, PBS-vehicle 31.05 ± 5.70) was 47.99 mmol/L and 48.92 mmol/L and 40.01 mmol/L and 27.83 mmol/L and 19.35 mmol/L and 18.22 mmol/L, the “uremia (urea)” value (Day 1 after 25 minute ischemia, PBS-vehicle 31.05 ± 5.70, listed as pargyline) was 33.72 ± 5.64 mmol/L and the “uremia (urea)” value (Day 1 after 25 minute ischemia, PBS-vehicle 31.05 ± 5.70, mean) was 33.72 ± 5.64 mmol/L. The “MPO activity as an index of neutrophil accumulation” value (from here on “MPO activity as an index”) (Day 1 after 25 minute ischemia, PBS-vehicle 80.45 ± 8.66) was 57.37±5.78 U MPO/mg protein and 47.9 U MPO/mg protein and 52.7 U MPO/mg protein and 68.7 U MPO/mg protein and 80.7 U MPO/mg protein and 48.8 U MPO/mg protein and 45.4 U MPO/mg protein, the “creatininemia (creatinine)” value (Day 1 after 25 minute ischemia, PBS-vehicle 99.97 ± 25.64) was 185.9 µmol/L and 150.7 µmol/L and 134.1 µmol/L and 77.6 µmol/L and 53.3 µmol/L and 26.6 µmol/L and the “creatininemia (creatinine)” value (Day 1 after 25 minute ischemia, PBS-vehicle 99.97 ± 25.64, listed as pargyline) was 104.7 ± 25.20 µmol/L. For the same compound, the “creatininemia (creatinine)” value (Day 1 after 25 minute ischemia, PBS-vehicle 99.97 ± 25.64, mean) was 104.7 ± 25.20 µmol/L, the “MDA level as an index” value (Day 5 after 25 minute ischemia, PBS-vehicle 0.188 ± 0.019) was 0.290 nmol/mg proteins and 0.231 nmol/mg proteins and 0.218 nmol/mg proteins and 0.261 nmol/mg proteins and 0.234 nmol/mg proteins and 0.299 nmol/mg proteins and the “MDA level as an index” value (Day 5 after 25 minute ischemia, PBS-vehicle 0.188 ± 0.019, mean) was 0.255 ± 0.014 nmol/mg proteins. The “uremia (urea)” value (Day 5 after 25 minute ischemia, PBS-vehicle 8.78 ± 0.72) was 7.63 mmol/L and 9.48 mmol/L and 7.37 mmol/L and 7.53 mmol/L and 8.78 mmol/L and 7.29 mmol/L, the “uremia (urea)” value (Day 5 after 25 minute ischemia, PBS-vehicle 8.78 ± 0.72, mean) was 8.01 ± 0.37 mmol/L and the “creatininemia (creatinine)” value (Day 5 after 25 minute ischemia, PBS-vehicle 21.97 ± 1.84) was 16 μmol/L and 27.2 μmol/L and 30.7 μmol/L and 19.2 μmol/L and 22.9 μmol/L (2×). The “creatininemia (creatinine)” value (Day 5 after 25 minute ischemia, PBS-vehicle 21.97 ± 1.84, mean) was 23.15 ± 2.16 µmol/L, the “MPO activity as an index” value (Day 5 after 25 minute ischemia, PBS-vehicle 54.95 ± 0.62) was 44.4 U MPO/mg protein and 49.2 U MPO/mg protein and 47.6 U MPO/mg protein and 42.2 U MPO/mg protein and 46.3 U MPO/mg protein and 49.6 U MPO/mg protein and the “MPO activity as an index” value (Day 5 after 25 minute ischemia, PBS-vehicle 54.95 ± 0.62, mean) was 46.55 ± 1.17 U MPO/mg protein.
